We go through 3 compounds from patent US8722849B2, “Polypeptides” (Novo Nordisk A/S, priority 2011, dated 2014).

Each structure is given as a SMILES string. In brackets after ≈: the same amount, converted by molar mass. Where two headings read alike, the source gives them in different places. Starred links: 1 amine or outer side, 2 acyl side, 3 side chain; linkers in the order of their positions; H or OH if unused. Positions of bridges follow the written chain, without caps; N, C: chain ends. Residues, ends and D or L forms follow the SMILES beside them. *: point of attachment. C18 diacid = O=C(O)CCCCCCCCCCCCCCCCC(=O)*; γGlu = O=C(O)[C@H](CCC(=O)[*:2])N[*:1]

The target of data set [1] is T1, human amylin receptor (amylin 3(a) receptor: human calcitonin receptor + RAMP-3) (Homo sapiens, UniProt O60896+P30988).
T1 construct: expressed in transfected cells; host or cells: BHK570
T1 sequence (P30988 25-474): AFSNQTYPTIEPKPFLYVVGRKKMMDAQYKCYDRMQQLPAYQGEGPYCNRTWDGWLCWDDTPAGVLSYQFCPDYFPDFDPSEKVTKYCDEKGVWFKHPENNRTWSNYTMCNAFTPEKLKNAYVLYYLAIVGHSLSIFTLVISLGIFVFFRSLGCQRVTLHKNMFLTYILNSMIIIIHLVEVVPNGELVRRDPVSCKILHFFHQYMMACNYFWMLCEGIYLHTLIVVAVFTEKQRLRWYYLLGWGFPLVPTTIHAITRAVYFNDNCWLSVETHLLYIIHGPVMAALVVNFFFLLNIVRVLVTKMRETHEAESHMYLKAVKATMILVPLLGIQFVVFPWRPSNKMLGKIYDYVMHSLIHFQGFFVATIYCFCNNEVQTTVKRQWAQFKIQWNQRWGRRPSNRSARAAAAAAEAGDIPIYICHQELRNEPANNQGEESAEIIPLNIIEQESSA
T1 sequence (O60896 24-148 partner): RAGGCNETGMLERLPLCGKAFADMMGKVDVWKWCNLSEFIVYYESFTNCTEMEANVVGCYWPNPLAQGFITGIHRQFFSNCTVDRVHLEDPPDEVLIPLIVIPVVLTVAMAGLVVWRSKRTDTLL
Description: Assay (II)a functional CRE-luciferase assay, human amylin receptor. In kind it is cell-based. Conditions: Table 2; BHK amylin 3(a)-receptor/CRE-luc cells.

In data set [2] the target is T2, human calcitonin receptor (Homo sapiens, UniProt P30988).
T2 construct: expressed in transfected cells; host or cells: BHK570
T2 sequence (P30988 25-474): T1 sequence (P30988 25-474)
Description: Assay (II)a functional CRE-luciferase assay, human calcitonin receptor. The format is cell-based. To be noted: Table 7; human calcitonin (CTa) receptor.

Data set [3] is described as follows: Assay (III) ThT fibrillation assay for physical stability. In kind it is physicochemical. The method, boiled down: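 Freshly prepared formulations, pH-adjusted, with 1 μM ThT; four or eight replicates incubated at 37 °C under 960 rpm orbital shaking. Fluorescence (ex 444/em 485 nm) read every 20 min; […]. Peptide concentration measured by RP-HPLC before and after the run.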

Data set [4] can be described thus: Assay (IV) determination of solubility. In kind it is physicochemical. The method in brief: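 Polypeptide in water (~500 nmol/ml) mixed 1:1 with 100 mM glycylglycine (pH 3.0–5.0) or bistrispropane (pH 6.0–8.0) buffers. Held 18 hours at room temperature, then centrifuged. Polypeptide remaining in solution quantified by HPLC.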
Setting [5] is: bistrispropane buffer, pH 6, pH 6.0, read-out: Solubility pH 6.0.
Setting [6] is: bistrispropane buffer, pH 6.5, pH 6.5, read-out: Solubility pH 6.5.
Setting [7] is: bistrispropane buffer, pH 7, pH 7.0, 18 hours at room temperature, Table 3, read-out: Solubility pH 7.0.
Setting [8] is: bistrispropane buffer, pH 7, pH 7.0, read-out: Solubility pH 7.0.
The mark [9] stands for this setting: bistrispropane buffer, pH 7.5, pH 7.5, read-out: Solubility pH 7.5.
The mark [10] stands for this setting: bistrispropane buffer, pH 8, pH 8.0, read-out: Solubility pH 8.0.
Setting [11] is: glycylglycine buffer, pH 3, pH 3.0, read-out: Solubility pH 3.0.
[12] abbreviates: glycylglycine buffer, pH 4, pH 4.0, 18 hours at room temperature, Table 2, read-out: Solubility pH 4.0.
Setting [13] is: glycylglycine buffer, pH 4, pH 4.0, read-out: Solubility pH 4.0.
Where [14] appears, read: glycylglycine buffer, pH 5, pH 5.0, read-out: Solubility pH 5.0.

In the case of `CC[C@H](C)[C@H](NC(=O)[C@@H]1CCCN1C(=O)CNC(=O)[C@H](Cc1ccccc1)NC(=O)[C@H](CC(N)=O)NC(=O)[C@H](CC(N)=O)NC(=O)[C@H](CO)NC(=O)[C@H](CO)NC(=O)[C@H](Cc1c[nH]cn1)NC(=O)[C@H](Cc1c[nH]cn1)NC(=O)[C@H](CC(C)C)NC(=O)[C@H](Cc1ccccc1)NC(=O)[C@H](CCC(=O)O)NC(=O)[C@H](C)NC(=O)[C@H](CC(C)C)NC(=O)[C@H](CCCNC(=N)N)NC(=O)[C@H](CCC(N)=O)NC(=O)[C@@H](NC(=O)[C@H](C)NC(=O)[C@@H]1CSSC[C@H](NC(=O)[C@H](Cc2c[nH]cn2)NC(=O)[C@H](Cc2c[nH]cn2)NC(=O)CC[C@H](NC(=O)CCCCCCCCCCCCCCCCC(=O)O)C(=O)O)C(=O)N[C@@H](CC(N)=O)C(=O)N[C@@H]([C@@H](C)O)C(=O)N[C@@H](C)C(=O)N[C@@H]([C@@H](C)O)C(=O)N1)[C@@H](C)O)C(=O)N[C@@H](CC(C)C)C(=O)N1CCC[C@H]1C(=O)N1CCC[C@H]1C(=O)N[C@H](C(=O)N[C@@H](CC(N)=O)C(=O)N[C@H](C(=O)NCC(=O)N[C@@H](CO)C(=O)N[C@@H](CC(N)=O)C(=O)N[C@H](C(=O)N[C@@H](Cc1ccc(O)cc1)C(N)=O)[C@@H](C)O)C(C)C)[C@@H](C)O` [Example 47, N-alpha-[(S)-4-Carboxy-4-(17-carboxyheptadecanoylamino)butyryl]-His-[His1,Glu14,His17]-pramlintide] ({C18 diacid-γGlu}-HHCNTATCATQRLAEFLHHSSNNFGPILPPTNVGSNTY-NH2; disulfide 3-8 (inferred); C-terminus assumed), the EC50 in data set [1] turned out to be 0.059 nM; in data set [2], 0.258 nM. Besides, the “ThT pH 4.0 lag time (h)” value in data set [3] (ThT fibrillation assay) came to 6 h. The solubility at 18 h was 168 µM (≈ 768 µg/mL) in data set [4] (setting [5]); 87 µM (≈ 398 µg/mL) in data set [4] (setting [6]); 118 µM (≈ 540 µg/mL) in data set [4] (setting [7]); 118 µM (≈ 540 µg/mL) in data set [4] (setting [8]); above 200 µM in data set [4] (setting [9]); above 200 µM in data set [4] (setting [10]). The solubility at 18 h in data set [4] (setting [11]), in data set [4] (setting [12]), in data set [4] (setting [13]) and in data set [4] (setting [14]) was above 200 µM each time.
As to `CC[C@H](C)[C@H](NC(=O)[C@@H]1CCCN1C(=O)CNC(=O)[C@H](Cc1ccccc1)NC(=O)[C@H](CC(N)=O)NC(=O)[C@H](CC(N)=O)NC(=O)[C@H](CO)NC(=O)[C@H](CO)NC(=O)[C@H](Cc1c[nH]cn1)NC(=O)[C@H](Cc1c[nH]cn1)NC(=O)[C@H](CC(C)C)NC(=O)[C@H](Cc1ccccc1)NC(=O)[C@H](CCC(=O)O)NC(=O)[C@H](C)NC(=O)[C@H](CC(C)C)NC(=O)[C@H](CCCNC(=N)N)NC(=O)[C@H](CCC(N)=O)NC(=O)[C@@H](NC(=O)[C@H](C)NC(=O)[C@@H]1CSSC[C@H](NC(=O)CC[C@H](NC(=O)CC[C@H](NC(=O)CCCCCCCCCCCCCCCCC(=O)O)C(=O)O)C(=O)O)C(=O)N[C@@H](CC(N)=O)C(=O)N[C@@H]([C@@H](C)O)C(=O)N[C@@H](C)C(=O)N[C@@H]([C@@H](C)O)C(=O)N1)[C@@H](C)O)C(=O)N[C@@H](CC(C)C)C(=O)N1CCC[C@H]1C(=O)N1CCC[C@H]1C(=O)N[C@H](C(=O)N[C@@H](CC(N)=O)C(=O)N[C@H](C(=O)NCC(=O)N[C@@H](CO)C(=O)N[C@@H](CC(N)=O)C(=O)N[C@H](C(=O)N[C@@H](Cc1ccc(O)cc1)C(N)=O)[C@@H](C)O)C(C)C)[C@@H](C)O` [Example 49, N-alpha-{(S)-4-Carboxy-4-[(S)-4-Carboxy-4-(17-carboxyheptadecanoylamino)butyrylamino]butyryl}-[des1,Glu14,His17]-pramlintide] ({C18 diacid-γGlu-γGlu}-CNTATCATQRLAEFLHHSSNNFGPILPPTNVGSNTY-NH2; disulfide 1-6 (inferred)), the results for the EC50 in data set [1] and in data set [2] were 0.151 nM and 0.527 nM, respectively. The “ThT pH 4.0 lag time (h)” value in data set [3] (ThT fibrillation assay) was 0 h. Further, the solubility at 18 h in data set [4] (setting [5]), in data set [4] (setting [6]), in data set [4] (setting [7]), in data set [4] (setting [8]), in data set [4] (setting [9]) and in data set [4] (setting [10]) was above 200 µM in each case. Also, the solubility at 18 h in data set [4] (setting [11]) was above 200 µM; in data set [4] (setting [12]), above 200 µM; in data set [4] (setting [13]) it was above 200 µM; in data set [4] (setting [14]) it was 27 µM (≈ 120 µg/mL).
Consider `CC[C@H](C)[C@H](NC(=O)[C@@H]1CCCN1C(=O)CNC(=O)[C@H](Cc1ccccc1)NC(=O)[C@H](CC(N)=O)NC(=O)[C@H](CC(N)=O)NC(=O)[C@H](CO)NC(=O)[C@H](CO)NC(=O)[C@H](Cc1c[nH]cn1)NC(=O)[C@H](CCCNC(=N)N)NC(=O)[C@H](CC(C)C)NC(=O)[C@H](Cc1ccccc1)NC(=O)[C@H](CCC(=O)O)NC(=O)[C@H](C)NC(=O)[C@H](CC(C)C)NC(=O)[C@H](CCCNC(=N)N)NC(=O)[C@H](CCC(N)=O)NC(=O)[C@@H](NC(=O)[C@H](C)NC(=O)[C@@H]1CSSC[C@H](NC(=O)[C@H](CCCCN)NC(=O)CC[C@H](NC(=O)CCCCCCCCCCCCCCCCC(=O)O)C(=O)O)C(=O)N[C@@H](CC(N)=O)C(=O)N[C@@H]([C@@H](C)O)C(=O)N[C@@H](C)C(=O)N[C@@H]([C@@H](C)O)C(=O)N1)[C@@H](C)O)C(=O)N[C@@H](CC(C)C)C(=O)N1CCC[C@H]1C(=O)N1CCC[C@H]1C(=O)N[C@H](C(=O)N[C@@H](CC(N)=O)C(=O)N[C@H](C(=O)NCC(=O)N[C@@H](CO)C(=O)N[C@@H](CC(N)=O)C(=O)N[C@H](C(=O)N[C@@H](Cc1ccc(O)cc1)C(N)=O)[C@@H](C)O)C(C)C)[C@@H](C)O` [Example 51, N-alpha-[(S)-4-Carboxy-4-(17-carboxyheptadecanoylamino)butyryl]-[Glu14,Arg17]-pramlintide] ({C18 diacid-γGlu}-KCNTATCATQRLAEFLRHSSNNFGPILPPTNVGSNTY-NH2; disulfide 2-7 (inferred); C-terminus assumed), for which the EC50 was found to be 0.061 nM in data set [1] and 0.6 nM in data set [2]. Also, the “ThT pH 4.0 lag time” value in data set [3] (Table 8) and in data set [3] (ThT fibrillation assay) was 28.7 h throughout. Further, the “ThT pH 4.0 lag time (h)” value in data set [3] (ThT fibrillation assay) is 28.7 h. In addition, the solubility at 18 h in data set [4] (setting [5]) was above 200 µM; in data set [4] (setting [6]), above 200 µM; in data set [4] (setting [7]) it was above 200 µM; in data set [4] (bistrispropane buffer, pH 7, pH 7.0, Table 8, read-out: Solubility pH 7.0), above 200 µM; in data set [4] (setting [8]), above 200 µM; in data set [4] (setting [9]), above 200 µM. In addition, the solubility at 18 h in data set [4] (setting [10]), in data set [4] (setting [11]), in data set [4] (setting [12]), in data set [4] (setting [13]) and in data set [4] (setting [14]) was above 200 µM in each case.

By EC50 is commonly meant the concentration giving half of the maximal effect. What is called solubility is the concentration that dissolves in the medium under given conditions.
